This assay has as its target T1, GIRK1/4(VT-IV) (Homo sapiens, UniProt P48544+P48549, T94V/V92I).
T1 construct: expressed in transfected cells; host or cells: Xenopus laevis oocytes (cRNA injection)
T1 sequence (P48549 1-501): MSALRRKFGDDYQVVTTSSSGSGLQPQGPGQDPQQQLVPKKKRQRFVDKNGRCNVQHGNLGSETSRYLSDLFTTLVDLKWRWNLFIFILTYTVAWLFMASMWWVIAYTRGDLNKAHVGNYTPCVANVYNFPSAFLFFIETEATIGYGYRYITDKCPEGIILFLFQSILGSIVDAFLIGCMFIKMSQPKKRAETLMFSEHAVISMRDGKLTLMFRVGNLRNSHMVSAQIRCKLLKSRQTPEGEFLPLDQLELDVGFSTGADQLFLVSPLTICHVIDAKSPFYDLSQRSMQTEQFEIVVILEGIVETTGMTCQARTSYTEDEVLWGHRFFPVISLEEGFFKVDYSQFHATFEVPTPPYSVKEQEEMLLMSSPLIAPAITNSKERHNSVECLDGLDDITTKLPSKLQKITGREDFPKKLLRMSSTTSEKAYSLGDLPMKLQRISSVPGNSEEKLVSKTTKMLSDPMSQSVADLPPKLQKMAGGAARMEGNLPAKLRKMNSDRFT
T1 sequence (P48544 1-419 V92I/T94V): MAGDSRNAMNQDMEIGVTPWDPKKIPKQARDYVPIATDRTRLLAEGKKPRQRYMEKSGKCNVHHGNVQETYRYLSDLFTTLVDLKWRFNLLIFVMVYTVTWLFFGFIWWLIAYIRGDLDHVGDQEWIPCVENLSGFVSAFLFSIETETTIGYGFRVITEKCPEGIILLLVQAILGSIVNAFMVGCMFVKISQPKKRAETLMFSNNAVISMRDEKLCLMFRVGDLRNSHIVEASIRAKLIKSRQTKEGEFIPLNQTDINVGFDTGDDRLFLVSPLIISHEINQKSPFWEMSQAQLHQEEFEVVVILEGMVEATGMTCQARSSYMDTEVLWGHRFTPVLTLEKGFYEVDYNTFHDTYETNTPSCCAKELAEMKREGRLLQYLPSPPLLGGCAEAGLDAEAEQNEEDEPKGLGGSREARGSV
Description: TEVC in Xenopus oocytes, double mutant GIRK1/4(VT-IV). Type of assay: cell-based. To be noted: GIRK1/4(VT-IV) double mutant. From the text:
Molecular biology: For Xenopus oocyte expression, human GIRK1 and human GIRK4 cDNAs were subcloned into pGEMHE. For mammalian expression, human GIRK1 and human GIRK4 cDNAs were subcloned into pcDNA3 and pcDNA3.1/V5-His B, respectively (Invitrogen). Mouse GIRK2 cDNA was subcloned in the dual-function vector, pXoom. Point mutations were introduced using a standard Pfu-based mutagenesis technique according to the QuikChange protocol (Agilent). Mutations were verified by sequencing.
Electrophysiology of oocytes: Whole-oocyte currents were measured by conventional two-electrode voltage clamp (TEVC) with a GeneClamp 500 amplifier (Axon Instruments). Agarose cushion microelectrodes were filled with 1.5% (w/v) agarose in 3 M KCl and were used with resistances between 0.1 and 1.5 megaohms. […] Barium-sensitive basal currents from both groups, 1) Vehicle, 2) single concentration at 10 μM and 3) multiple concentrations of ML297 or GAT compounds in the presence of HK solution, were assessed at −80 mV using TEVC. Barium-sensitive currents were normalized to average basal current in the vehicle solutions. The HK solution contained the following: 96 mM KCl, 1 mM NaCl, 1 mM MgCl2, 5 mM KOH/HEPES, pH 7.4. The barium solution consisted of HK+10 mM BaCl2. Five to ten oocytes from the same batch (same frog) were recorded for each group, and the experiments were repeated in at least four batches. Data acquisition and analysis were carried out using pClamp9 (Molecular Devices) and OriginPro (Microcal) software.
To test these computational predictions, the inventors mutated each or both of the two M1 key wild-type GIRK4 subunit residues to the corresponding GIRK2 residues (GIRK4-V92I, GIRK4-T94V, GIRK4-V92I/T94V or GIRK4-dm) and vice-versa the GIRK2 residues to the corresponding GIRK4 ones (GIRK2-I97V, GIRK2-V99T, GIRK2-I97V/V99T or GIRK2-dm) (FIG. 35). […]

For orientation: EC50 means the midpoint of the concentration-response curve. High values mean a less potent agent, low ones a more potent agent.

The compound `Cc1cc(NC(=O)Nc2ccc(Br)s2)n(-c2ccccc2)n1` [GAT1508, 1-(5-bromothiophen-2-yl)-3-(3-methyl-1-phenyl-1H-pyrazol-5-yl)urea] showed a concentration giving a half-maximal response (EC50) of 550 ± 110 nM and an EMAX of 1.76±0.03. The Emax (read-out: EMAX, % of the control GIRK1/2) worked out at 75%.

The values are drawn from patent US12351574B2, “Selective ligands for modulation of GIRK channels” (Northeastern University, priority 2018, dated 2025).
